Experimental data from ChEMBL document CHEMBL1121587, “Synthesis of some new S-alkylated derivatives of 5-mercapto-2'-deoxyuridine as potential antiviral agents” (1980).

System: HeLa
Test: Compound was evaluated for antiviral activity against Herpes simplex type 1 in HeLa TK- cells at 100 uM concentration
Format: functional, Homo sapiens

With `C=CCSc1cnc(O)nc1O` the Virus titer was 65000000 pfu/ml.
With `CSc1cn(O[C@H]2CC(O)[C@@H](CO)O2)c(=O)[nH]c1=O` (stereo not given in full) the Virus titer was 5200000 pfu/ml.
Work on `C#CSc1cnc(O)nc1O` yielded a Virus titer of 37000000 pfu/ml.
`C=CCSc1cn(O[C@H]2CC(O)[C@@H](CO)O2)c(=O)[nH]c1=O` (stereo not given in full) showed a Virus titer of 5300000 pfu/ml.
In the case of `O=c1[nH]c(=O)n(O[C@H]2CC(O)[C@@H](CO)O2)cc1SCCO` (stereo not given in full), the Virus titer is reported as 38000000 pfu/ml.
